These results are taken from patent US4730063A, “Alkali metal 2,5-dihydro-3-ethoxycarbonyl-2-[(substituted phenyl)amino]-4-furanyloxides” (Pennwalt Corportion, priority 1986, dated 1988).

For this assay, the system named is carrageenan-induced rat paw edema. As to the kind of experiment: carrageenan-induced rat paw edema assay. In kind it is in vivo. The note with it: oral doses of 50 mg/kg. A general note: Carrageenan injected into the paw causes an acute inflammation.

`CCOC(=O)C1=C(O)COC1=Nc1ccccc1` [Example 1, potassium 2,5-dihydro-3-ethoxycarbonyl-2-(phenylimino)-4-furanyloxide]: the inhibition of edema worked out at 31%.

On to `CCOC(=O)C1=C(O)COC1=Nc1cccc([N+](=O)[O-])c1` [Example 4, potassium 2,5-dihydro-3-ethoxycarbonyl-2-[(3-nitrophenyl)imino]-4-furanyloxide], for which the inhibition of edema was determined as 28.3%.
